{"source": "patent US11384090B2", "about": "“Spiropyrrolidine derived antiviral agents” (priority 2020, dated 2022)"}
{"molecular_target": "SARS-CoV-2 3CL-protease (Severe acute respiratory syndrome coronavirus 2 (2019-nCoV) (SARS-CoV-2), UniProt P0DTD1)", "assay": "biochemical", "conditions": "read-out: FRET IC50", "units": {"IC50": "nM"}}
{"smiles": "CN(C(=O)OCc1ccccc1)[C@@H](Cc1ccccc1)C(=O)N1C[C@]2(C[C@H]1C#N)C(=O)Nc1ccccc12", "note": "[Compound 41]", "IC50": "< 100"}
{"smiles": "CC(C)C[C@@H](C(=O)N1C[C@]2(C[C@H]1C=O)C(=O)Nc1ccccc12)N(C)C(=O)OCc1ccccc1", "note": "[Compound 24]", "IC50": "100 to 1000"}
{"smiles": "CC(C)(C)C[C@H](NC(=O)c1cc2c(F)cccc2[nH]1)C(=O)N1C[C@]2(C[C@H]1C#N)C(=O)Nc1ccccc12", "note": "[Compound 21]", "IC50": "< 100"}
{"system": "229E human corona virus (hCoV)", "assay": "229E live virus assay", "format": "cell-based, hCoV-229E", "conditions": "Human coronavirus 229E, MRC5, 144 h, read-out: 229E EC50", "units": {"EC50": "nM"}}
{"smiles": "CN(C(=O)c1cc2c(F)cc(F)cc2[nH]1)[C@@H](Cc1ccccc1)C(=O)N1C[C@]2(C[C@H]1C#N)C(=O)Nc1ccccc12", "note": "[Compound 81]", "EC50": "< 100"}
{"system": "229E human corona virus (hCoV)", "assay": "229E live virus assay", "format": "cell-based, hCoV-229E", "conditions": "MRC-5 cells, MOI 0.05, 6 days at 34° C., ATPlite readout, run in duplicate; read-out: 229E EC50", "units": {"EC50": "nM"}}
{"smiles": "CN(C(=O)c1cc2c(F)cc(F)cc2[nH]1)[C@@H](CC1CCC1)C(=O)N1C[C@]2(C[C@H]1C#N)C(=O)Nc1ccccc12", "note": "[Compound 91]", "EC50": "< 100"}
{"smiles": "COc1cccc2[nH]c(C(=O)N[C@@H](CC(C)C)C(=O)N3C[C@]4(C[C@H]3C(=O)C(=O)NC3CC3)C(=O)Nc3ccccc34)cc12", "note": "[Compound 31]", "EC50": "100 to 1000"}
{"smiles": "CC(C)CC[C@@H](C(=O)N1C[C@]2(C[C@H]1C#N)C(=O)Nc1ccccc12)N(C)C(=O)c1cc2c(F)cc(F)cc2[nH]1", "note": "[Compound 104]", "EC50": "< 100"}
{"smiles": "COc1cccc2[nH]c(C(=O)N[C@H](CC(C)C)C(=O)N3C[C@]4(C[C@H]3C#N)C(=O)Nc3ccccc34)cc12", "note": "[Compound 12]", "EC50": "100 to 1000"}
{"smiles": "COc1cccc2[nH]c(C(=O)N[C@@H](CC3CCC3)C(=O)N3C[C@]4(C[C@H]3C#N)C(=O)Nc3ccccc34)cc12", "note": "[Compound 17]", "EC50": "< 100"}
{"smiles": "CC(C)C[C@H](NC(=O)OCc1ccccc1)C(=O)N1C[C@]2(C[C@H]1C#N)C(=O)Nc1ccccc12", "note": "[Compound 1]", "EC50": "100 to 1000"}
{"smiles": "CC(C)C[C@@H](C(=O)N1C[C@]2(C[C@H]1C#N)C(=O)Nc1ccccc12)N(C)C(=O)OCc1ccccc1", "note": "[Compound 39]", "EC50": "> 1000"}
{"smiles": "C=CCN(C(=O)OCc1ccccc1)[C@@H](CC(C)C)C(=O)N1C[C@]2(C[C@H]1C#N)C(=O)Nc1ccccc12", "note": "[Compound 96]", "EC50": "100 to 1000"}
{"smiles": "CN(C(=O)OCc1ccccc1)[C@@H](CC1CCC1)C(=O)N1C[C@]2(C[C@H]1C#N)C(=O)Nc1ccccc12", "note": "[Compound 89]", "EC50": "100 to 1000"}
{"smiles": "CCCN(C(=O)OCc1ccccc1)[C@@H](CC(C)C)C(=O)N1C[C@]2(C[C@H]1C#N)C(=O)Nc1ccccc12", "note": "[Compound 97]", "EC50": "> 1000"}
{"smiles": "COc1cccc2[nH]c(C(=O)N[C@@H](CC(C)C)C(=O)N3C[C@]4(C[C@H]3C#N)C(=O)Nc3ccccc34)cc12", "note": "[Compound 11]", "EC50": "< 100"}
{"smiles": "COc1cccc2[nH]c(C(=O)N[C@@H](CC(C)C)C(=O)N3C[C@]4(C[C@H]3C=O)C(=O)Nc3ccccc34)cc12", "note": "[Compound 23]", "EC50": "< 100"}
{"smiles": "COc1cccc2[nH]c(C(=O)N[C@H](CC(C)(C)C)C(=O)N3C[C@]4(C[C@H]3C#N)C(=O)Nc3ccccc34)cc12", "note": "[Compound 16]", "EC50": "100 to 1000"}
{"smiles": "CCCN(C(=O)c1cc2c(F)cccc2[nH]1)[C@@H](CC(C)C)C(=O)N1C[C@]2(C[C@H]1C#N)C(=O)Nc1ccccc12", "note": "[Compound 98]", "EC50": "100 to 1000"}
